Test results reported in patent publication US7932249B2, “Olanzapine pamoate dihydrate” (Eli Lilly and Company, priority 2005, dated 2011).

Tests used:
Assay type in all cases: physicochemical
[1] = Comparative in vitro dissolution test, 50 rpm paddle speed; settings: for Average % Olanzapine Release (n = 3): USP Apparatus 2, 50 rpm, 0.05% CTAB pH 6.8 USP buffer, 37° C., 1000 mL
Protocol: In-vitro dissolution testing was performed to compare the olanzapine release rates for olanzapine pamoate monohydrate and the olanzapine pamoate dihydrate.

[2] = Solubility in aqueous solution (comparative statement)
[3] = In vitro dissolution test at higher paddle speed (100 rpm); settings: 100 rpm paddle speed, 0.05% CTAB pH 6.8 USP buffer, 37° C.
Protocol: Another dissolution experiment was performed in order to ensure that the media conditions used to generate the profiles in Table 4 were not solubility limiting. This experiment was performed using the same samples and media conditions but at a higher paddle speed to provide the data listed in Table 5.

Compound | Average % Olanzapine Release (n = 3) ([1]; 0.25 hr) [%] | Average % Olanzapine Release (n = 3) ([1]; 0.5 hr) [%] | Average % Olanzapine Release (n = 3) ([1]; 0.75 hr) [%] | Average % Olanzapine Release (n = 3) ([1]; 1 hr) [%] | Average % Olanzapine Release (n = 3) ([1]; 2 hrs) [%] | Average % Olanzapine Release (n = 3) ([1]; 4 hrs) [%] | Average % Olanzapine Release (n = 3) ([1]; 6 hrs) [%] | Average % Olanzapine Release (n = 3) ([1]; 24 hrs) [%] | Release rate of olanzapine compared with olanzapine pamoate monohydrate ([1]; aqueous conditions of Table 3, 50 rpm) | Solubility in aqueous solution compared with olanzapine pamoate monohydrate [2] | % Olanzapine Release (n = 1) ([3]; 24 hrs) [%] | % Olanzapine Release (n = 1) ([3]; 36 hrs) [%]
Cc1cc2c(s1)Nc1ccccc1N=C2N1CCN(C)CC1.O.O.O=C(O)c1cc2ccccc2c(Cc2c(O)c(C(=O)O)cc3ccccc23)c1O [Olanzapine Pamoate Dihydrate, 2-methyl-4-(4-methyl-1-piperazinyl)-10H-thieno[2,3-b][1,5]benzodiazepine pamoate dihydrate] | 19 | 26 | 30 | 33 | 40 | 45 | 47 | 59 | substantially lower release rate of olanzapine than the olanzapine pamoate monohydrate | substantially less soluble in aqueous solution than olanzapine pamoate monohydrate | 95 | 97
Cc1cc2c(s1)Nc1ccccc1N=C2N1CCN(C)CC1.O=C(O)c1cc2ccccc2c(Cc2c(O)c(C(=O)O)cc3ccccc23)c1O [Olanzapine Pamoate Monohydrate, 2-methyl-4-(4-methyl-1-piperazinyl)-10H-thieno[2,3-b][1,5]benzodiazepine pamoate, reference compound] | 27 | 39 | 46 | 52 | 62 | 73 | 77 | 83 | – | – | 99 | 99
